Activity calls are given as the source filed them. The rule behind the calls is not given here.
How the values were obtained:
Format in all cases: nucleic-acid assay
[1] = test system: Nucleic Acid; assay: Binding affinity to 21G telomeric DNA assessed as formation of G-quadruplex DNA at 20 uM by circular dichroism assay in presence of exonuclase 1 and bis-(benzimidazole)aryl
[2] = test system: Nucleic Acid; assay: Binding affinity to single stranded DNA23 assessed as formation of G-quadruplex DNA at 20 uM by UV light illumination photographic analysis in presence of exonuclase 1 and sodium cation
[3] = test system: Nucleic Acid; assay: Binding affinity to single stranded DNA20 assessed as formation of G-quadruplex DNA at 20 uM by UV light illumination photographic analysis in presence of exonuclase 1 and sodium cation
[4] = test system: Nucleic Acid; assay: Binding affinity to single stranded DNA23 assessed as formation of G-quadruplex DNA at 20 uM by UV light illumination photographic analysis in presence of exonuclase 1 and KCl
[5] = test system: Nucleic Acid; assay: Binding affinity to 21G telomeric DNA assessed as formation of G-quadruplex DNA at 20 uM after 45 mins by label-free fluorescence spectroscopy in presence of exonuclase 1, KCl and TMPyP4
[6] = test system: Nucleic Acid; assay: Binding affinity to single stranded DNA23 assessed as formation of G-quadruplex DNA at 20 uM by circular dichroism assay in presence of KCl and exonuclase 1
[7] = test system: Nucleic Acid; assay: Binding affinity to 21G telomeric DNA assessed as formation of G-quadruplex DNA at 20 uM after 5 mins by label-free fluorescence spectroscopy in presence of LiCl and exonulease 1
[8] = test system: Nucleic Acid; assay: Binding affinity to single stranded DNA20 assessed as formation of G-quadruplex DNA at 20 uM by UV light illumination photographic analysis in presence of exonuclase 1 and bis-(benzimidazole)aryl
[9] = test system: Nucleic Acid; assay: Binding affinity to 21G telomeric DNA assessed as formation of G-quadruplex DNA at 20 uM after 5 mins by label-free fluorescence spectroscopy in presence of exonuclase 1 and KCl
[10] = test system: Nucleic Acid; assay: Binding affinity to single stranded DNA20 assessed as formation of G-quadruplex DNA at 20 uM by circular dichroism assay in presence of KCl and exonuclase 1
[11] = test system: Nucleic Acid; assay: Binding affinity to single stranded DNA18 assessed as formation of G-quadruplex DNA at 20 uM by circular dichroism assay in presence of lithium cation and exonuclase 1
[12] = test system: Nucleic Acid; assay: Binding affinity to single stranded DNA23 assessed as formation of G-quadruplex DNA at 20 uM by circular dichroism assay in presence of sodium cation and exonuclase 1
[13] = test system: Nucleic Acid; assay: Binding affinity to 21G telomeric DNA assessed as formation of G-quadruplex DNA at 20 uM after 45 mins by label-free fluorescence spectroscopy in presence of exonuclase 1, Li+ cation and TMPyP4
[14] = test system: Nucleic Acid; assay: Binding affinity to 21G telomeric DNA assessed as formation of G-quadruplex DNA at 20 uM by UV light illumination photographic analysis in presence of exonuclase 1 and bis-(benzimidazole)aryl
[15] = test system: Nucleic Acid; assay: Binding affinity to 21G telomeric DNA assessed as formation of G-quadruplex DNA at 20 uM after 5 mins by label-free fluorescence spectroscopy in presence of exonuclase 1 and increasing concentration of KCl
[16] = test system: Nucleic Acid; assay: Binding affinity to single stranded DNA20 assessed as formation of G-quadruplex DNA at 20 uM after 45 mins in KCl-deficient buffer by label-free fluorescence spectroscopy in presence of exonuclase 1 and TMPyP4
[17] = test system: Nucleic Acid; assay: Binding affinity to 21G telomeric DNA assessed as formation of VEGF G-quadruplex DNA at 20 uM by UV light illumination photographic analysis in presence of exonuclase 1 and KCl
[18] = test system: Nucleic Acid; assay: Binding affinity to single stranded DNA20 assessed as formation of G-quadruplex DNA at 20 uM by circular dichroism assay in presence of sodium cation and exonuclase 1
[19] = test system: Nucleic Acid; assay: Binding affinity to single stranded DNA23 assessed as formation of G-quadruplex DNA at 20 uM by circular dichroism assay in presence of lithium cation and exonuclase 1
[20] = test system: Nucleic Acid; assay: Binding affinity to 21G telomeric DNA assessed as formation of d(G4T4g4) quadruplex DNA at 20 uM after 5 mins by label-free fluorescence spectroscopy in presence of exonuclase 1 and Na+ cation
[21] = test system: Nucleic Acid; assay: Binding affinity to single stranded DNA18 assessed as formation of G-quadruplex DNA at 20 uM by circular dichroism assay in presence of sodium cation and exonuclase 1
[22] = test system: Nucleic Acid; assay: Binding affinity to 21G telomeric DNA assessed as formation of c-kit G-quadruplex DNA at 20 uM by UV light illumination photographic analysis in presence of exonuclase 1 and KCl
[23] = test system: Nucleic Acid; assay: Binding affinity to single stranded DNA18 assessed as formation of G-quadruplex DNA at 20 uM by UV light illumination photographic analysis in presence of exonuclase 1 and lithium cation
[24] = test system: Nucleic Acid; assay: Binding affinity to 21G telomeric DNA assessed as formation of G-quadruplex DNA at 20 uM after 45 mins in KCl-deficient buffer by label-free fluorescence spectroscopy in presence of exonuclase 1 and TMPyP4
[25] = test system: Nucleic Acid; assay: Binding affinity to single stranded DNA18 assessed as formation of G-quadruplex DNA at 20 uM by UV light illumination photographic analysis in presence of exonuclase 1 and sodium cation
[26] = test system: Nucleic Acid; assay: Binding affinity to 21G telomeric DNA assessed as formation of G-quadruplex DNA at 20 uM after 5 mins in KCl-deficient buffer by label-free fluorescence spectroscopy in presence of exonuclase 1
[27] = test system: Nucleic Acid; assay: Binding affinity to single stranded DNA20 assessed as formation of G-quadruplex DNA at 20 uM by UV light illumination photographic analysis in presence of exonuclase 1 and lithium cation
[28] = test system: Nucleic Acid; assay: Binding affinity to single stranded DNA20 assessed as formation of G-quadruplex DNA at 20 uM by circular dichroism assay in presence of exonuclase 1 and bis-(benzimidazole)aryl
[29] = test system: Nucleic Acid; assay: Binding affinity to 21G telomeric DNA assessed as formation of d(G4T4g4) quadruplex DNA at 20 uM after 5 mins in Na+ cation-deficient buffer by label-free fluorescence spectroscopy in presence of exonuclase 1
[30] = test system: Nucleic Acid; assay: Binding affinity to 21G telomeric DNA assessed as formation of c-myc G-quadruplex DNA at 20 uM by UV light illumination photographic analysis in presence of exonuclase 1 and KCl
[31] = test system: Nucleic Acid; assay: Binding affinity to single stranded DNA18 assessed as formation of G-quadruplex DNA at 20 uM by UV light illumination photographic analysis in presence of exonuclase 1 and KCl
[32] = test system: Nucleic Acid; assay: Binding affinity to single stranded DNA20 assessed as formation of G-quadruplex DNA at 20 uM by UV light illumination photographic analysis in presence of exonuclase 1 and KCl
[33] = test system: Nucleic Acid; assay: Binding affinity to single stranded DNA20 assessed as formation of G-quadruplex DNA at 20 uM by circular dichroism assay in presence of lithium cation and exonuclase 1
[34] = test system: Nucleic Acid; assay: Binding affinity to single stranded DNA23 assessed as formation of G-quadruplex DNA at 20 uM by UV light illumination photographic analysis in presence of exonuclase 1 and lithium cation
[35] = test system: Nucleic Acid; assay: Binding affinity to 21G telomeric DNA assessed as formation of G-quadruplex DNA at 20 uM by circular dichroism assay in presence of KCl and exonuclase 1
[36] = test system: Nucleic Acid; assay: Binding affinity to single stranded DNA18 assessed as formation of G-quadruplex DNA at 20 uM by circular dichroism assay in presence of KCl and exonuclase 1

C[N+](C)(C)CCC[Si]1(C)C(c2ccccc2)=C(c2ccccc2)C(c2ccccc2)=C1c1ccccc1
Activity [1]: Active
Activity [2]: inactive
Activity [3]: inactive
Activity [4]: inactive
Activity [5]: Active
Activity [6]: inactive
Activity [7]: inactive
Activity [8]: inactive
Activity [9]: Active
Activity [10]: inactive
Activity [11]: inactive
Activity [12]: inactive
Activity [13]: inactive
Activity [14]: Active
Activity [15]: Active
Activity [16]: inactive
Activity [17]: Active
Activity [18]: inactive
Activity [19]: inactive
Activity [20]: Active
Activity [21]: inactive
Activity [22]: Active
Activity [23]: inactive
Activity [24]: inactive
Activity [25]: inactive
Activity [26]: inactive
Activity [27]: inactive
Activity [28]: inactive
Activity [29]: inactive
Activity [30]: Active
Activity [31]: inactive
Activity [32]: inactive
Activity [33]: inactive
Activity [34]: inactive
Activity [35]: Active
Activity [36]: inactive

Source: ChEMBL document CHEMBL1152664, “Visual observation of G-quadruplex DNA with the label-free fluorescent probe silole with aggregation-induced emission” (Bioorg Med Chem, 2009)
